pEC50, pKi: −log10 of the molar value.
What was measured:
human A3 receptors = target: T1, human A3 receptors (Homo sapiens, UniProt P0DMS8); assay: Adenosine receptor binding assay ([3H]HEMADO competition); conditions: Table 1, membranes of HEK-293 cells expressing human A3 receptor, Cheng-Prusoff, read-out: hA3 Ki
T1 construct: expressed in transfected cells; host or cells: HEK-293 cells, stably transfected; membrane preparation
T1 sequence (P0DMS8 1-318): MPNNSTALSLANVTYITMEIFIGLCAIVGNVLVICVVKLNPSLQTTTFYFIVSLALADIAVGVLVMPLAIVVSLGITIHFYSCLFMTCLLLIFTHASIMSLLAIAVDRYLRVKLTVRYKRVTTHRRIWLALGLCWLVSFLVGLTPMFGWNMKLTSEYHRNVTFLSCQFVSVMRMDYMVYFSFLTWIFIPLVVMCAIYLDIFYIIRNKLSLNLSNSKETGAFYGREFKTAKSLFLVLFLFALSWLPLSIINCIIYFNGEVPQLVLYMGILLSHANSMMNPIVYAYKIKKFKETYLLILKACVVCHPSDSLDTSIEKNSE
Source text: Materials and Reference Compounds: [^3H] HEMADO (obtained from (ARC, Cat: ART1456) and [3H] DPCPX (obtained from PerkinElmer Cat no. NET974250UC)). IB-MECA was obtained from Tocris (Bristol, UK) and N6-cyclopentyl adenosine (CPA) is obtained from Sigma-Alrich (Poole, UK). Cell culture media, G418 and hygromycin are obtained from Invitrogen (Paisley, UK). Fetal calf serum is obtained from Perbio Science (Cheshire, UK). All other reagents are obtained from Fisher Chemicals (Loughborough, UK).
The method followed is that of Yates L, Clark J H, Martin T J, James S, Broadley K J, Kidd E J. Radioligand binding and functional responses of ligands for human recombinant adenosine A3 receptors. Auton Autacoid Pharmacol. 2006; 26 (2): 191-200. Cells stably transfected with the human adenosine A3 or A1 receptor are grown in Dulbecco's modified Eagles medium with nutrient mixture F12 containing NaHCO3 and Glutamax. Media is supplemented with 10% fetal calf serum, geneticin (G418; 0.67 mg/mL), hygromycin (500 μg/mL) and adenosine deaminase (1 U/mL). Cells are maintained at 37° C. with 5% CO2 in air. Cells are harvested and homogenized in ice-cold Tris buffer [50 mM Tris, 150 mM NaCl, 1 mM ethylenediaminetetraacetic acid (EDTA), pH 7.4] supplemented with the peptidase inhibitors, 4-(2-aminoethyl)benzene sulfonylfluoride (1 mM) and bacitracin (0.1 mg/mL), using a Polytron homogenizer (3×10 s bursts). The homogenate is spun for 10 min (4° C.) at 500 g. The supernatant is retained and the pellet is re-suspended in the buffer, homogenized and spun as above. The combined supernatants are centrifuged for 15 min (4° C.) at 48,000 g. The resultant pellet is re-suspended in the buffer and centrifuged for a second time at 48,000 g. The membrane pellet is then suspended in Tris buffer containing no peptidase inhibitors or adenosine deaminase and stored at −80° C. at a protein concentration of 1 mg/mL.
Binding Assays: Radioligand-binding assays are performed using the adenosine A3 receptor agonist [^3H] HEMADO and the A1 receptor […] [^3H] DPCPX. Binding assays are conducted in a total volume of 100 μL containing a 50 mM Tris, pH 7.4 buffer with or without 10 mM MgCl2, 20 μg membranes and either 4.154 nM [3H] HEMADO (for the A3 receptor) or 1.6065 nM [^3H] DPCPX (for the A1 receptor). Assays are conducted at room temperature for 60 min (A1 receptor) or 120 min (A3 receptor) and terminated by the addition of 2 ml of ice-coldish buffer (50 mM Tris, pH 7.4 with or without 10 mM MgCl2) and rapid filtration over 0.03% polyethylenimine-treated Whatman GF/C filters using a Brandel cell harvester (Semat International Ltd., St Albans, UK). Filters are then ished three times with 2 ml of ice-cold buffer. The filter-bound radioactivity are counted using a Compugamma counter (LKB Wallac, Turku, Finland). Competition experiments are performed to investigate the ability of reference compounds and embodiments of the invention to inhibit [^3H] HEMADO binding. Non-specific binding are determined using the respective compound at its highest concentration.
Data Analysis: The Kd and Bmax values for binding data are calculated based upon the molar amounts of bound and free [^3H] HEMADO. […] IC50 and Ki values and Hill slopes for inhibition of the radioligand binding by the compounds of the invention are calculated from the ligand competition curves using the Excel spreadsheet and the Kd value calculated for either [^3H] HEMADO or [^3H] DPCPX. The results are expressed as a percent of control specific binding and as a percent inhibition of control specific binding obtained in the presence of the compounds of the invention. The IC50 values (concentration causing a half-maximal inhibition of control specific binding) and Hill coefficients (nH) are determined by non-linear regression analysis of the competition curves generated with mean replicate values using Hill equation curve fitting: […]

[1] = target: T2, human adenosine A3 receptor (Homo sapiens, UniProt P0DMS8); assay: Intracellular cAMP levels (inhibition of forskolin-stimulated cAMP production); type: cell-based; conditions: Table 1; for pEC50: CHO-K1 cells expressing human adenosine A3 receptor, forskolin 10 μM; for cAMP Efficacy (%): maximal response as percentage of the response produced by 100 nM IB-MECA
T2 construct: expressed in transfected cells; host or cells: CHO-K1 cells, stably transfected
T2 sequence (P0DMS8 1-318): T1 sequence (P0DMS8 1-318)
Source text: The method followed is that published in Yates L, Clark J H, Martin T J, James S, Broadley K J, Kidd E J. Radioligand binding and functional responses of ligands for human recombinant adenosine A3 receptors. Auton Autacoid Pharmacol. 2006 April; 26 (2): 191-200.
Materials and Cell Culture: Adenosine deaminase is obtained from Roche (Lewes, UK). Forskolin is obtained from Sigma-Aldrich (Poole, UK). The sources of other materials are provided above in Example 1. CHO-K1 cells stably transfected with the human adenosine A3 receptor are grown in Dulbecco's modified Eagles medium with nutrient mixture F12 containing NaHCO3 and Glutamax. Media is supplemented with 10% fetal calf serum, geneticin (G418; 0.67 mg/mL), hygromycin (500 μg/mL) and adenosine deaminase (1 U/mL). Cells are maintained at 37° C. with 5% CO2 in air.
CAMP Measurements: Intracellular cAMP production is measured directly using a non-acetylation cAMP enzyme immunoassay (Amersham Biosciences, Little Chalfont, UK). Cultured CHO cells expressing human adenosine A3 receptors are allowed to plate overnight in 96-well plates in culture medium containing adenosine deaminase. Twenty-four hours later, they are incubated with adenosine analogues or compounds of the invention (0.1 nM-1 μM) for 5 min at 37° C., followed by incubation with forskolin (10 μM) for 10 min. The cells are then lysed with 200 μL of lysis reagent 1 provided with the kit for 10 min to release intracellular CAMP. Aliquots of the supernatants are then transferred to a 96-well microtitre plate coated with donkey anti-rabbit IgG; 100-μL cAMP standards (12.5-3200 fmol/well) are also added to the microtitre plate; 100 μL of rabbit anti-cAMP antibody is added to all wells and incubated at 2-5° C. for 2 h. The antiserum is made up in lysis reagent 2, which sequesters the key component in lysis reagent 1 and ensures that CAMP is free for subsequent analysis. Then 50 μL of cAMP peroxidase conjugate is added to all wells and left to incubate for 60 min at 2-5° C. to allow competition for the antibody between the un-labelled and horse radish peroxidase (HRP)-labelled cAMP. Wells are then ished with buffer and 150 μL of enzyme substrate containing 3,3′,5,5′-tetramethylbenzidine/hydrogen peroxide in 20% (v/v) dimethylformamide is added to each well and left to incubate for 60 min on a Titramax 100 microtitre plate shaker (Heidolph Instruments, Schwabach, Germany) at room temperature for color development. The reaction is stopped by the addition of 100 μL of 1 M sulfuric acid and the optical density (OD) read at 450 nm on a spectrophotometric MRX microplate reader (Dynex Technologies, Chantilly, VA, USA).
Analyses: Each sample/standard was analyzed in duplicate and the resulting OD values averaged. The percent bound (B/B0) for each standard and sample was calculated using the following relationship:
[formula] • where B is the specific OD for standard/sample and B0 is the specific OD for the zero standard. A standard curve was generated by plotting % B/B0 as a function of the log fmol cAMP standard per well. The fmol per well value for cAMP in each sample was then read from the graph. The results are expressed as a percent of control agonist response: (measured response/control response)*100 in the presence of the compounds of the invention. Concentration-response curves for inhibition of cAMP production were constructed for all compounds of the invention and reference compounds. The EC50 values (concentration producing a half-maximal response) were determined by non-linear regression analysis of the concentration-response curves generated with mean replicate values using Hill equation curve fitting, according to the equation:
[formula] • where Y=response, A=left asymptote of the curve, D=right asymptote of the curve, C=compound concentration, and C50=EC50, and nH=slope factor. […]

SMILES | pKi (human A3 receptors) | pEC50 [1] | cAMP Efficacy (%) [1] [%]
N#Cc1cc(NCc2cc(Cl)ccc2Cl)c2ncn([C@H]3[C@H](O)[C@H](O)[C@]4(c5ncc[nH]5)C[C@H]34)c2n1 [Compound 8B] | 7.92 | 8.73 | 104.81
O[C@H]1[C@H](n2cnc3c(NCc4cc(Cl)ccc4Cl)cc(Cl)nc32)[C@H]2C[C@@]2(c2ncc[nH]2)[C@H]1O [Compound 9B] | 7.41 | 8.34 | 103.89
CCNc1cc(Cl)nc2c1ncn2[C@H]1[C@H](O)[C@H](O)[C@]2(c3ncco3)C[C@H]12 [Compound 10B] | 7.39 | 7.79 | 70.12
CCNc1cc(Cl)nc2c1ncn2[C@H]1[C@H](O)[C@H](O)[C@]2(c3ncc[nH]3)C[C@H]12 [Compound 12B] | 7.51 | 8.26 | 107.37
O[C@H]1[C@H](n2cnc3c(NCC(F)F)cc(Cl)nc32)[C@H]2C[C@@]2(c2ncn[nH]2)[C@H]1O [Compound 14B] | 7.66 | 7.57 | 89.97

The next compounds have a higher pKi (human A3 receptors) than those just listed; values first:

pKi (human A3 receptors) | pEC50 [1] | cAMP Efficacy (%) [1] [%] | SMILES
8.91 | 9.77 | 104 | Cc1cc2c(Cl)nc3c(ncn3[C@H]3[C@H](O)[C@H](O)[C@]4(c5ncn(C)n5)C[C@H]34)c2[nH]1 [Compound 2B]
8.90 | 9.00 | 31.72 | Cc1nc2c(Cl)nc3c(ncn3[C@H]3[C@H](O)[C@H](O)[C@]4(c5nnn(C)n5)C[C@H]34)c2[nH]1 [Compound 3B]
8.57 | 7.00 | 10 | Cn1nnc([C@@]23C[C@@H]2[C@@H](n2cnc4c5[nH]c(C=O)cc5c(Cl)nc42)[C@H](O)[C@@H]3O)n1 [Compound 4B]
8.55 | 8.52 | 34.29 | Cn1nnc([C@@]23C[C@@H]2[C@@H](n2cnc4c5[nH]c(CO)cc5c(Cl)nc42)[C@H](O)[C@@H]3O)n1 [Compound 5B]
8.20 | 9.85 | 105.39 | Cc1cc2c(Cl)nc3c(ncn3[C@H]3[C@H](O)[C@H](O)[C@]4(c5ncc[nH]5)C[C@H]34)c2[nH]1 [Compound 6B]
8.68 | – | 2 | CCNc1cc(Cl)nc2c1ncn2[C@H]1[C@H](O)[C@H](O)[C@]2(c3nnn(C)n3)C[C@H]12 [Compound 13B]

— US20260008805A1, “ADENOSINE ANALOGS FOR THE TREATMENT OF DISEASE” (BIOINTERVENE, INC., priority 2022, published 2026)
